Structure (SMILES) | melting point
Cc1cc(C#N)cc(C(=O)c2c(C(C)C)c(=O)[nH]c(=O)n2CC2(CC(N)=O)CC2)c1 | 283 to 285 °C
CCCCc1nnc(-c2ccncc2)n1Cc1ccc(N)cc1 | 63.5 to 64.5 °C
COc1ccc2[nH]c(C)cc2c1O | 118 to 119 °C
COc1ccc2cc3c(=O)n(C)cc(C(=O)NCCN(C)C)c3nc2c1 | 213 to 215 °C
COc1ccc(C2CCN(C(=O)CCC(=O)c3ccc4c(c3)CCNCC4)CC2)cc1 | 99 to 100 °C
CCCCn1c(=O)c2c(NC)n[nH]c2n(CCO)c1=O | 248 to 253 °C
CCCc1nnc2c(NC3CCCC3)nc3ccccc3n12 | 186 to 188 °C
Nc1sc2c(c1C(=O)c1ccco1)CCCC2 | 121 to 122 °C
CCOC(=O)c1nccn1Cc1ccc(Cl)cc1N | 94 to 96 °C
CC12CC(N3CCC(=O)CC3)C(O)CC1CCC1C2CCC2(C)C(O)C(N3CCCCC3)CC12 (stereo not given) | 205 to 206 °C
O=C(c1cccnc1)N1CC2COc3ccc(Cl)cc3C2=N1 (stereo not given) | 165 to 166 °C
CCOC(=O)Nc1cnc(NCCCOc2cccc(CN3CCCCC3)c2)[nH]c1=O | 171 to 173 °C
Cn1c(-c2cccs2)n[nH]c1=O | 183 to 185 °C
CC1CC(=O)NN=C1c1ccc(NN=C(c2ccc(O)cc2O)c2ccc(O)cc2O)cc1 (stereo not given) | 150 to 175 °C
C=CC[C@@H](N[S@](=O)C(C)(C)C)c1cc(F)cc(C#N)c1 | 38 to 40 °C
COc1ccc2c(c1)C(C1CCC1)=NCC2 | 44 to 46 °C

Now from value to compound:

melting point | Structure (SMILES)
40 to 42 °C | Nc1cc(Br)ccc1-c1ccccc1F
162 to 163 °C | FC(F)C(F)(F)Sc1nc(-c2ccc(Cl)cc2)c(-c2cccs2)[nH]1
48 to 53 °C | CCOC(=O)COc1nccc(-c2ccccn2)n1
170 to 172 °C | CC(C)c1cccc(C(C)C)c1NC(=O)C1c2ccccc2COc2cc(Br)ccc21 (stereo not given)
118 to 120 °C | COc1ccccc1NC(=S)c1ccc(C(F)(F)F)cc1
101 to 102 °C | Nc1n[nH]c2c(C(F)(F)F)cccc12
149 to 151 °C | O=C(c1cccc(Cc2ccc(=O)[nH]n2)c1)c1c(Cl)cc(Cl)cc1Cl
207 to 208 °C | O=C(O)c1cccc(-c2ccc3c(c2)N(Cc2cc(Cl)cc(Cl)c2)CC3)c1
162 to 164 °C | O=C1c2ccccc2S(=O)(=O)N1COc1ccc([N+](=O)[O-])cc1
96 to 99 °C | CC(=O)OCCN1CCN(CC#CC2=Cc3ccccc3Sc3ccc(Cl)cc32)CC1
60 to 62 °C | COC(=O)C1CC2(CN1C(=O)CN(C)CC(=O)C(Cc1ccccc1)NC(=O)c1ccccc1)SCCS2 (stereo not given)
163 to 164 °C | FC(F)(F)COc1ccc(-c2nc3n(c2-c2ccc(OCC(F)(F)F)cc2)CCS3)cc1
249 to 251 °C | Cc1cnc2c(C#N)c(-c3ccc(S(=O)(=O)NC4(C(F)(F)F)CC4)cn3)n(C3CCCC3)c2c1
147 to 149 °C | Cc1nc2c(s1)CN=C(c1ccccc1F)c1cc(Cl)ccc1-2
177 to 179 °C | O=C(Nc1cc(Cl)ccc1C(=O)O)NS(=O)(=O)c1ccc(OCCN2CCN(c3ccccc3)CC2)cc1
160 to 161 °C | O=C(Nc1ccc(-n2nc(C(F)(F)F)cc2C(F)(F)F)cc1)c1c(Cl)ccc([N+](=O)[O-])c1Cl
124 to 126 °C | COc1cc(Cl)cc(C(=O)C(F)(F)F)c1N
97 to 100 °C | CC(C)=CCOc1ccc2cc(C(C)C(=O)O)ccc2c1 (stereo not given)
168 to 170 °C | NC(=O)N1CCN(c2nn(-c3ccccc3)c3cc(F)ccc23)CC1
84 to 86 °C | O=S(=O)(Nc1ccc(C(F)(F)F)cc1I)c1ccccc1
193 to 194 °C | Cn1c(C(F)(F)F)cc(=O)n(-c2ccc3snc(C=O)c3c2)c1=O
118 °C | C#Cc1ccc2c(c1)CC1SC(c3ccccc3)=NC21O (stereo not given)
203 to 205 °C | Cc1[nH]cnc1C(=O)OCc1ccccc1
90 °C | COC(=O)Cc1ccc(OCc2ccc3ccccc3n2)c(Br)c1
